Experimental data: publication PMC12957798, “Adaptation of plateau frog peptide: From antimicrobial to angiogenic and proliferative functions” (Journal of Advanced Research, 2025)
“Also recorded” adds a separate entry of the source.

Assays:
[1] = test system: Acinetobacter baumannii (ATCC 19606), Candida auris (ATCC 10231), Pseudomonas aeruginosa (ATCC 27853) and Staphylococcus aureus (ATCC 6538); assay: Disk diffusion (paper-disc agar-diffusion) antimicrobial test; type: cell-based; settings: SC17-2 10 mg/mL, 1 mL on filter paper, 24 h, 37 °C, b51 statement also rests on the MIC test
Protocol: Disk diffusion and broth microdilution tests were selected as the standard method for screening the antimicrobial activity of SC17-2 [58]. The experiments were conducted utilising the disk diffusion test, whereby the following strains were examined: Acinetobacter baumannii (ATCC 19606), Candida auris (ATCC 10231), Pseudomonas aeruginosa (ATCC 27853) and Staphylococcus aureus (ATCC 6538). The concentration of bacterial suspension was then adjusted to 1 × 10^5 CFU/mL with saline, after which it was set aside. Separate plates containing bacterial agar were prepared: MH agar was utilised for the isolation of bacterial samples, while Sartorius agar was employed for the isolation of fungal samples. The suspensions containing the aforementioned microorganisms were then spread on the designated plates at a rate of 1:1000. A sterile filter paper was used to dispense 1 mL of SC17-2 (10 mg/mL), with equal amounts of PBS and Vancomycin/Colistin serving as controls. The plates were then subjected to the appropriate temperature (24 h at 37 °C) and subsequently observed under a camera to ascertain the results.

wound tissue = assay: H&E staining of mouse wound sections; type: in vivo
Protocol: Sodium pentobarbital (2 %) was utilised for the anaesthetisation of mice by intraperitoneal injection (0.1 mL/20 g of mouse body weight). Subsequent to the induction of anaesthesia, the dorsal hair was removed using depilatory creams and electric scissors. Thereafter, circular full skin wounds of the same diameter were marked and created on the back of each mouse using circular stamps and red stencils. Mouse wounds were then covered and infiltrated daily with 20 μL of different concentrations of SC17-2 or 20 ng/mL of VEGF, and an equal volume of saline was used in the control group. Mice were anaesthetised every two days using isoflurane nebulisation followed by anaesthesia (concentration 2 %), after which they were placed under an optical camera to photograph the effect of wound area. After 13 days of treatment, mice were anaesthetised using isoflurane nebulisation followed by injection of an overdose of sodium pentobarbital to euthanise the mice (200 mg/kg). The wounds and their surrounding tissues were then excised for histopathological evaluation (Masson and H&E staining) and analysed by Enface immunofluorescence staining.

CD31 = CD31 immunofluorescence of mouse wound sections (angiogenesis); type: in vivo; settings: 13 days
Protocol: Use scissors to remove the tissue around the wound, put the tissue into 4 % paraformaldehyde solution, put the tissue in 4 °C for 24 h, use a tissue embedding machine for embedding, use a rotary slicer to section the tissue, put the section into environmentally friendly dewaxing solution to dewax for 3 times, 10 min each time, then use anhydrous ethanol to treat the section for 3 times, 5 min each time, rinse with distilled water and then repair the section by EDTA antigen repair solution. The slides were then incubated overnight at 4 °C with Anti-CD31 Mouse mAb as primary antibody and at room temperature for 50 min, protected from light, in PBS (pH 7.4), shaken and washed 3 times for 5 min each time on a decolourising shaker. Incubate at room temperature for 10 min. Images were captured using a scanner (Pannoramic MIDI), and graphics were processed using imageJ. The results were calculated as follows: relative staining area of blood vessels = An/average (Ac), An indicates the fluorescence staining area of CD31 obtained from the current sample by ImageJ statistics, […], and Ac is the fluorescence staining area of CD31 of all control samples.
ImageJ was used to quantify the percentage of stained area for Masson and the percentage of fluorescent area for CD31. All data were analysed by GraphPad Prism 9.5 software. Data were expressed as mean ± SEM. Comparisons between multiple groups were performed by using one-way analysis of variance (ANOVA) and Tukey's multiple comparison test. Differences between groups were commonly tested by ANOVA, P < 0.05 was considered statistically significant.

[2] = test system: Transgenic zebrafish Tg (Fli1a:eGFP); assay: Zebrafish VRI-induced vascular insufficiency model (ISV); type: in vivo; settings: VRI 300 ng/mL
Protocol: Transgenic zebrafish Tg (Fli1a:eGFP) were cultured in culture tanks at 28 °C in a 14 h:10 h light/dark cycle for up to 6 months and subsequently made to produce zygotes by mating only, zebrafish larvae at 24 h post fertilisation (hpf) were induced for 3 h with a VEGFR tyrosine kinase inhibitor II (VRI) to produce a model of vascular insufficiency, after which they were washed to abort the effect of VRI was added to the same number of zebrafish of different groups with SC17-2 or equivalent amount of PBS, and images of zebrafish embryos were captured by Leica fluorescence microscopy, and the ISV index was calculated as follows: ISV index = intact blood vessels × 1 + defective blood vessels × 0.5.

(p-Smad2/3)/(Smad2/3) = assay: Western blot p-Smad2/3 / Smad2/3 in HaCaT; type: cell-based, Human; settings: SC17-2 20 μg/mL, 24 h (16 h elsewhere in the source), n = 3
Protocol: HaCaT was inoculated in 12-well plates (2 × 10^5 cells/well) and cultured for 24 h. Afterwards, HaCaT cells were treated with equal amounts of VEGF, SC17-2, and PBS for 16 h. Cells were washed with PBS, after which the samples were collected and added to 1 mL of RIPA lysate containing protease inhibitors and phosphatase inhibitors and placed on ice for 30 min. Allowed to be after sufficient lysis, the supernatant was centrifuged and collected to determine the protein concentration using a nanodrop, followed by the addition of SDS sampling buffer and heating at 95 °C for 10 min. Samples were loaded and run on a gel block based on the determined sample concentration, and then electrotransferred onto a 0.45 μm PVDF membrane. […] After washing three times with TBST, proteins were visualised and scanned by enhanced chemiluminescence using the ChemiDoc XRS imaging system (Bio-Rad, Hercules, CA, USA).

EGF mRNA = assay: qPCR EGF mRNA in HaCaT; type: cell-based, Human; settings: SC17-2 20 μg/mL, n = 6
Protocol: HaCaT cells were treated as above, washed twice with PBS and lysed using Trizol for 5 min, after which 200 μL of chloroform was added and shaken vigorously for 30 s. The cells were centrifuged for 15 min to separate the upper and lower layers (12,500 g, 4 °C). The supernatant was vortexed with an equal amount of isopropanol and left to stand for 10 min, and then centrifuged again under the same conditions to retain only the white precipitate. 500 μL of 75 % ethanol was added and centrifuged (12000 rpm, 4 °C, 10 min) and the operation was repeated twice. Afterwards, DEPC was used for dissolution and the concentration was determined by nanodrop. One-step reverse transcription to DNA was performed using 5 × MIX, after which primers and 2 × MIX were added and placed. qPCR was performed (LightCycler96, F. Hoffmann-La Roche, Swiss).

[3] = Antioxidant activity (stated, no separate method); settings: no separate method or value printed
[4] = increase in concentration of SC17-2

## SFMPLSIPIMCKMLSKC [SC17-2, peptide of the pleskein family from the skin transcriptome of the frog Nanorana parkeri, made by solid-phase synthesis]
[1]
  antimicrobial (bacteriostatic) activity: no bacteriostatic activity; also recorded: does not appear to have antimicrobial activity
Wound tissue; day 13, SC17-2 no less than 10 μg/mL
  inflammatory cell infiltration in wound tissue: significantly reduced the degree of inflammatory cell infiltration in the wound tissue
Wound tissue; [4]
  epithelial tissue thickness: notable thickening of epithelial tissue
  granulation tissue formation: enhanced granulation tissue formation
CD31; CD31 images
  number of blood vessels in wounds, dose dependence: number of blood vessels in the wounds increased with the increase of SC17-2 concentration
CD31; SC17-2 5 μg/mL, n = 9
  blood vessel formation (CD31 staining): promoted blood vessel formation
CD31; SC17-2 10 and 20 μg/mL, n = 9
  proangiogenic effect compared with VEGF (CD31 staining): more pronounced than that of VEGF
[2]; SC17-2 20 μg/mL, 24 h, n = 6
  ISVs restored, relative to healthy zebrafish: 84.18%
[2]; SC17-2 5, 10, 20 μg/mL, 24 h post-treatment
  number of ISV, dose dependence: significant increase in the number of ISV in a dose-dependent manner
(p-Smad2/3)/(Smad2/3)
  Smad2/3 phosphorylation: significantly increased Smad2/3 phosphorylation
EGF mRNA
  mRNA expression of EGF: significantly elevated
[3]
  antioxidant activity: demonstrated antioxidant activity
